According to ChEMBL document CHEMBL1201862, “PubChem BioAssay data set” (2004):
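In this assay, cells in 96-well plates receive the compound at five concentrations for 48 hours. Endpoints are linearly interpolated between the surrounding concentrations. Abbreviation: GI50, concentration required for 50% inhibition of growth.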 Calls of active or inactive are those of the source. Cut-off read from the data, not from the text of the source: active = GI50 up to about 1.1 µM and inactive = higher.

Key:
Assay in all cases: growth of human tumour cells (NCI), 48 h
DLD-1 = test system: DLD-1
DMS-114 = test system: DMS-114
DMS-273 = test system: DMS-273
HOP-18 = test system: HOP-18
HOP-62 = test system: HOP-62
IGROV-1 = test system: IGROV-1
MOLT-4 = test system: MOLT-4
NCI-H226 = test system: NCI-H226
OVCAR-4 = test system: OVCAR-4
SF-295 = test system: SF-295
SF-539 = test system: SF-539
SK-MEL-2 = test system: SK-MEL-2
SNB-75 = test system: SNB-75
SNB-78 = test system: SNB-78
UO-31 = test system: UO-31

Compound	GI50 (DLD-1)	GI50 (DMS-114)	GI50 (DMS-273)	GI50 (HOP-18)	GI50 (HOP-62)	GI50 (IGROV-1)	GI50 (MOLT-4)	GI50 (NCI-H226)	GI50 (OVCAR-4)	GI50 (SF-295)	GI50 (SF-539)	GI50 (SK-MEL-2)	GI50 (SNB-75)	GI50 (SNB-78)	GI50 (UO-31)
Cc1c2cnccc2c(C)c2c1c1ccccc1n2CC1CO1 (stereo not given)	1.55 µM (inactive)	820 nM (active)	0.638 µM (active)	1.86 µM (inactive)	1.64 µM (inactive)	1.48 µM (inactive)	0.0213 µM (active)	1.76 µM (inactive)	1.99 µM (inactive)	1.33 µM (inactive)	1.21 µM (inactive)	1.66 µM (inactive)	0.652 µM (active)	1.83 µM (inactive)	1.42 µM (inactive)
CC(=O)NNc1nc(C)c(C(=O)NNC(=O)C(=O)Nc2ccccc2C#N)s1	> 100 µM (inactive)	> 100000 nM (inactive)	> 100 µM (inactive)	> 100 µM (inactive)	> 100 µM (inactive)	> 100 µM (inactive)	> 100 µM (inactive)	> 100 µM (inactive)	> 100 µM (inactive)	> 100 µM (inactive)	> 100 µM (inactive)	> 100 µM (inactive)	> 100 µM (inactive)	> 100 µM (inactive)	> 100 µM (inactive)
O=C1C(Br)=CC2([N+](=O)[O-])CCNC3=C(C4=NCCc5c[nH]c(c54)C3=O)C2=C1Br (stereo not given)	0.364 µM (active)	163 nM (active)	1.72 µM (inactive)	14.4 µM (inactive)	3.58 µM (inactive)	1.99 µM (inactive)	1.14 µM (inactive)	2.38 µM (inactive)	1.76 µM (inactive)	1.91 µM (inactive)	2.11 µM (inactive)	1.65 µM (inactive)	8.39 µM (inactive)	2.09 µM (inactive)	9.59 µM (inactive)
